PubChem BioAssay AID1259407 (Chemical Carcinogenesis Research Information System (CCRIS), 2018)
The source made the active and inactive calls. No rule for the calls is given here.

System: CCRIS mutagenicity, Ames/micronucleus/aberration tests
Assay: CCRIS mutagenicity studies
[1] = Test System: AMES SALMONELLA TYPHIMURIUM, Strain/Indicator: TA100, Metabolic Activation: RAT, LIVER, S-9, AROCLOR 1254, Method: STANDARD PLATE

CN(C)c1ccc(Cc2ccc(N(C)C)cc2)cc1
mutagenic call (Test System: AMES SALMONELLA TYPHIMURIUM, Strain/Indicator: TA98, Metabolic Activation: HAMSTER, LIVER, S-9, AROCLOR 1254, Method: STANDARD PLATE): inactive; negative | mutagenic call (Test System: AMES SALMONELLA TYPHIMURIUM, Strain/Indicator: TA98, Metabolic Activation: HAMSTER, LIVER, S-9, Method: STANDARD PLATE): inactive; negative | mutagenic call (Test System: AMES SALMONELLA TYPHIMURIUM, Strain/Indicator: TA98, Metabolic Activation: MOUSE, LIVER, S-9, Method: STANDARD PLATE): inactive; negative | mutagenic call (Test System: AMES SALMONELLA TYPHIMURIUM, Strain/Indicator: TA98, Metabolic Activation: NONE, Method: STANDARD PLATE): inactive; negative | mutagenic call (Test System: AMES SALMONELLA TYPHIMURIUM, Strain/Indicator: TA98, Metabolic Activation: RAT, LIVER, S-9, AROCLOR 1254, Method: STANDARD PLATE): inactive; negative | mutagenic call (Test System: AMES SALMONELLA TYPHIMURIUM, Strain/Indicator: TA98, Metabolic Activation: RAT, LIVER, S-9, Method: STANDARD PLATE): inactive; negative | mutagenic call (Test System: AMES SALMONELLA TYPHIMURIUM, Strain/Indicator: TA100, Metabolic Activation: HAMSTER, LIVER, S-9, AROCLOR 1254, Method: STANDARD PLATE): inactive; negative | mutagenic call (Test System: AMES SALMONELLA TYPHIMURIUM, Strain/Indicator: TA100, Metabolic Activation: HAMSTER, LIVER, S-9, Method: STANDARD PLATE): inactive; negative | mutagenic call (Test System: AMES SALMONELLA TYPHIMURIUM, Strain/Indicator: TA100, Metabolic Activation: MOUSE, LIVER, S-9, Method: STANDARD PLATE): inactive; negative | mutagenic call (Test System: AMES SALMONELLA TYPHIMURIUM, Strain/Indicator: TA100, Metabolic Activation: NONE, Method: STANDARD PLATE): inactive; negative | mutagenic call [1]: inactive; negative | mutagenic call (Test System: AMES SALMONELLA TYPHIMURIUM, Strain/Indicator: TA100, Metabolic Activation: RAT, LIVER, S-9, Method: STANDARD PLATE): inactive; negative | mutagenic call (Test System: AMES SALMONELLA TYPHIMURIUM, Strain/Indicator: TA1535, Metabolic Activation: HAMSTER, LIVER, S-9, AROCLOR 1254, Method: STANDARD PLATE): inactive; negative | mutagenic call (Test System: AMES SALMONELLA TYPHIMURIUM, Strain/Indicator: TA1535, Metabolic Activation: HAMSTER, LIVER, S-9, Method: STANDARD PLATE): inactive; negative | mutagenic call (Test System: AMES SALMONELLA TYPHIMURIUM, Strain/Indicator: TA1535, Metabolic Activation: MOUSE, LIVER, S-9, AROCLOR 1254, Method: STANDARD PLATE): inactive; negative | mutagenic call (Test System: AMES SALMONELLA TYPHIMURIUM, Strain/Indicator: TA1535, Metabolic Activation: MOUSE, LIVER, S-9, Method: STANDARD PLATE): inactive; negative | mutagenic call (Test System: AMES SALMONELLA TYPHIMURIUM, Strain/Indicator: TA1535, Metabolic Activation: NONE, Method: STANDARD PLATE): inactive; negative | mutagenic call (Test System: AMES SALMONELLA TYPHIMURIUM, Strain/Indicator: TA1535, Metabolic Activation: RAT, LIVER, S-9, AROCLOR 1254, Method: STANDARD PLATE): inactive; negative | mutagenic call (Test System: AMES SALMONELLA TYPHIMURIUM, Strain/Indicator: TA1535, Metabolic Activation: RAT, LIVER, S-9, Method: STANDARD PLATE): inactive; negative | mutagenic call (Test System: AMES SALMONELLA TYPHIMURIUM, Strain/Indicator: TA1537, Metabolic Activation: HAMSTER, LIVER, S-9, AROCLOR 1254, Method: STANDARD PLATE): inactive; negative | mutagenic call (Test System: AMES SALMONELLA TYPHIMURIUM, Strain/Indicator: TA1537, Metabolic Activation: HAMSTER, LIVER, S-9, Method: STANDARD PLATE): inactive; negative | mutagenic call (Test System: AMES SALMONELLA TYPHIMURIUM, Strain/Indicator: TA1537, Metabolic Activation: MOUSE, LIVER, S-9, AROCLOR 1254, Method: STANDARD PLATE): inactive; negative | mutagenic call (Test System: AMES SALMONELLA TYPHIMURIUM, Strain/Indicator: TA1537, Metabolic Activation: MOUSE, LIVER, S-9, Method: STANDARD PLATE): inactive; negative | mutagenic call (Test System: AMES SALMONELLA TYPHIMURIUM, Strain/Indicator: TA1537, Metabolic Activation: NONE, Method: STANDARD PLATE): inactive; negative | mutagenic call (Test System: AMES SALMONELLA TYPHIMURIUM, Strain/Indicator: TA1537, Metabolic Activation: RAT, LIVER, S-9, AROCLOR 1254, Method: STANDARD PLATE): inactive; negative | mutagenic call (Test System: AMES SALMONELLA TYPHIMURIUM, Strain/Indicator: TA1537, Metabolic Activation: RAT, LIVER, S-9, Method: STANDARD PLATE): inactive; negative | mutagenic call (Test System: AMES SALMONELLA TYPHIMURIUM, Strain/Indicator: TA1538, Metabolic Activation: HAMSTER, LIVER, S-9, Method: STANDARD PLATE): inactive; negative | mutagenic call (Test System: AMES SALMONELLA TYPHIMURIUM, Strain/Indicator: TA1538, Metabolic Activation: MOUSE, LIVER, S-9, AROCLOR 1254, Method: STANDARD PLATE): inactive; negative | mutagenic call (Test System: AMES SALMONELLA TYPHIMURIUM, Strain/Indicator: TA1538, Metabolic Activation: MOUSE, LIVER, S-9, Method: STANDARD PLATE): inactive; negative | mutagenic call (Test System: AMES SALMONELLA TYPHIMURIUM, Strain/Indicator: TA1538, Metabolic Activation: NONE, Method: STANDARD PLATE): inactive; negative | mutagenic call (Test System: AMES SALMONELLA TYPHIMURIUM, Strain/Indicator: TA1538, Metabolic Activation: RAT, LIVER, S-9, AROCLOR 1254, Method: STANDARD PLATE): inactive; negative | mutagenic call (Test System: AMES SALMONELLA TYPHIMURIUM, Strain/Indicator: TA1538, Metabolic Activation: RAT, LIVER, S-9, Method: STANDARD PLATE): inactive; negative | mutagenic call (Test System: E. COLI, Strain/Indicator: WP2 UVRA, Metabolic Activation: HAMSTER, LIVER, S-9, AROCLOR 1254, Method: STANDARD PLATE): inactive; negative | mutagenic call (Test System: E. COLI, Strain/Indicator: WP2 UVRA, Metabolic Activation: HAMSTER, LIVER, S-9, Method: STANDARD PLATE): inactive; negative | mutagenic call (Test System: E. COLI, Strain/Indicator: WP2 UVRA, Metabolic Activation: MOUSE, LIVER, S-9, AROCLOR 1254, Method: STANDARD PLATE): inactive; negative | mutagenic call (Test System: E. COLI, Strain/Indicator: WP2 UVRA, Metabolic Activation: MOUSE, LIVER, S-9, Method: STANDARD PLATE): inactive; negative | mutagenic call (Test System: E. COLI, Strain/Indicator: WP2 UVRA, Metabolic Activation: NONE, Method: STANDARD PLATE): inactive; negative | mutagenic call (Test System: E. COLI, Strain/Indicator: WP2 UVRA, Metabolic Activation: RAT, LIVER, S-9, AROCLOR 1254, Method: STANDARD PLATE): inactive; negative | mutagenic call (Test System: E. COLI, Strain/Indicator: WP2 UVRA, Metabolic Activation: RAT, LIVER, S-9, Method: STANDARD PLATE): inactive; negative | mutagenic call (Test System: MOUSE LYMPHOMA, Strain/Indicator: L5178Y (TK+/TK-), Metabolic Activation: RAT, LIVER, S-9, AROCLOR 1254, Method: SUSPENSION/PLATE): active; positive

Cc1ccc2c(C)c3ccc4c(c3nc2c1)C=C[C@H](O)[C@H]4O
mutagenic call [1]: active; positive
